# Reference: patent US11130741B2 (Bioimics AB, priority 2016, dated 2021)
# Read-outs that look alike come from different tables or passages of the source.
# Key:
# [1] = system: Staphylococcus aureus subsp. aureus (ATCC29213); assay: MIC, broth microdilution (CLSI), Staphylococcus aureus subsp. aureus ATCC29213; assay type: cell-based
# [2] = system: E. coli RNase P RNA, M1 RNA; assay: Inhibition of bacterial RNase P activity, IC50 determination (cleavage of pATSerUG by M1 RNA); assay type: biochemical; details: NI = No inhibition
# [3] = system: Escherichia coli (ATCC25922); assay: MIC, broth microdilution (CLSI), Escherichia coli ATCC25922; details: ATCC25922, read-out: E. coli MIC, Table 15, NI = No inhibition
# [4] = system: Staphylococcus aureus (ATCC25923); assay: MIC, broth microdilution (CLSI), Staphylococcus aureus ATCC25923; details: ATCC25923, read-out: S. aureus ("Clinical") MIC
# Protocol: Initial minimal inhibitory concentration (MIC) tests were made on two bacterial strains: • Escherichia coli (ATCC25922) • Staphylococcus aureus (ATCC25923).
# Minimal Inhibitory Concentration (MIC)
# MIC values were determined using the standard broth microdilution procedure based on the guidelines by the Clinical and Laboratory Standards Institute (CLSI). Briefly, the compounds were dissolved in DMSO to 10 mM. They were diluted in cation-adjusted Mueller-Hinton broth (CAMHB) to four times the highest concentration tested. A serial 2-fold dilution in CAMHB was done in microdilution plates. The inoculum of bacterial strain to be tested was prepared by making a suspension of colonies from an 18 to 24 hours old plate in CAMHB. The inoculum was diluted so that, after inoculation, each well contained approximately 5×10^5 CFU/mL. To a volume of 50 μl compound in CAMHB an equal volume of inoculum was added. The tray was sealed in a plastic bag and incubated at 35° C. for 16 to 20 hours. To aid in the detection of growth the dye resazurin was added to a final concentration 0.001% and incubated at room temperature for 1 h. Reduction of resazurin, and therefore bacterial growth, was seen as a change from blue to pink.
# [5] = system: Pseudomonas aeruginosa (ATCC27853); assay: microbe, parasite or virus in culture; assay type: cell-based; details: read-out: MIC P. aeruginosa ATCC 27853
# [6] = system: H. influenzae ATCC 49247; assay: MIC, H. influenzae ATCC 49247; assay type: cell-based; details: Haemophilus influenzae, ATCC49247
# [7] = system: A. baumannii ATCC 17978; assay: MIC, A. baumannii ATCC 17978; assay type: cell-based; details: Acinetobacter baumannii, ATCC17978
# [8] = system: N. gonorrhoeae 612501; assay: MIC, N. gonorrhoeae 612501; assay type: cell-based; details: Neisseria gonorrhoeae
# [9] = system: S. aureus ATCC 29213; assay: MIC, S. aureus ATCC 29213 + 50% HS; assay type: cell-based; details: Staphylococcus aureus, ATCC29213
# [10] = system: S. aureus MRSA ATCC 33591; assay: MIC, S. aureus MRSA ATCC 33591; assay type: cell-based; details: Staphylococcus aureus; read-out: MIC S. aureus MRSA ATCC 33591
# [11] = system: P. aeruginosa NTUH-974 (MDR); assay: MIC, P. aeruginosa NTUH-974 (MDR); assay type: cell-based; details: Pseudomonas aeruginosa; read-out: MIC P. aeruginosa NTUH-974 (MDR)
# [12] = system: S. pneumoniae ATCC 49619; assay: MIC, S. pneumoniae ATCC 49619; assay type: cell-based; details: Streptococcus pneumoniae, ATCC49619
# [13] = ATCC29213, Table 15, read-out: S. aureus ("wound") (MIC)
SMILES,"MIC [1, 13] [µg/mL]",IC50 [2] [µM],MIC [3] [µg/mL],MIC [4] [µg/mL],further results
"NCC(O)CNC(=O)c1cc2c(c([N+](=O)[O-])c1)Nc1ccccc1S2 (centres unmarked) [compound 94, N-(3-amino-2-hydroxypropyl)-1-nitro-10H-phenothiazine-3-carboxamide]",94,202,> 100,64,–
"NC1CCCC(C(=O)Nc2cc(C(F)(F)F)cc3c2Nc2ccccc2S3)C1 (centres unmarked) [compound 105, 3-Amino-N-(3-(trifluoromethyl)-10H-phenothiazin-1-yl)cyclohexanecarboxamide]",32,15,52,26,–
"CN(C)CCCN1c2ccc(-c3cc4ccccc4[nH]3)cc2Sc2cccnc21 [compound 135, 3-(7-(1H-Indol-2-yl)-10H-benzo[b]pyrido[2,3-e][1,4]thiazin-10-yl)-N,N-dimethylpropan-1-amine]",8,24 to 32,> 100,6,–
"CN(C)CCCN1c2ccccc2Sc2cc(-c3cc4ccccc4n3CCN)ccc21 [compound 136, 3-(3-(1-(2-aminoethyl)-1H-indol-2-yl)-10H-phenothiazin-10-yl)-N,N-dimethylpropan-1-amine]",16,37,7,7,–
"FC(F)(F)c1cc(NC2CCNCC2)c2c(c1)Sc1ccccc1N2 [compound 141, N-(piperidin-4-yl)-3-(trifluoromethyl)-10H-phenothiazin-1-amine]",6,12,12,3,–
"NC1CCCC(C(=O)Nc2cc(C(F)(F)F)cc3nc4ccccc4nc23)C1 (centres unmarked) [compound 211, 3-amino-N-(3-(trifluoromethyl)phenazin-1-yl) cyclohexane-carboxamide]",211,258,–,25,–
"N#Cc1ccc2c(c1)Sc1cc(C(F)(F)F)cc(NC3CCN(CCN)CC3)c1N2 [compound 217, 9-((1-(2-Aminoethyl)piperidin-4-yl)amino)-7-(trifluoromethyl)-10H-phenothiazine-3-carbonitrile]",4,10,3,2,–
"CNCCN1CCC(Nc2cc(CN)cc3c2Nc2ccccc2S3)CC1.O=C(O)C(F)(F)F [compound 224, 3-(aminomethyl)-N-(1-(2-(methylamino)ethyl)piperidin-4-yl)-10H-phenothiazin-1-amine 2,2,2-trifluoroacetate salt]",–,68,64,64,–
"NCCN1CCCC(Nc2cc(C(F)(F)F)cc3c2Nc2ccccc2S3)CC1 (centres unmarked) [compound 225, N-(1-(2-aminoethyl)azepan-4-yl)-3-(trifluoromethyl)-10H-phenothiazin-1-amine]",–,> 100,7,3,–
"NCCN1CCC(Nc2cc(C(F)(F)F)cc3c2Nc2ccc(Cl)cc2S3)CC1 [compound 226, N-(1-(2-Aminoethyl)piperidin-4-yl)-7-chloro-3-(trifluoromethyl)-10H-phenothiazin-1-amine]",–,23,14,4,–
"NCCN1CCC(Nc2cc(C(F)(F)F)cc3c2Nc2ccc(CN)cc2S3)CC1.O=C(O)C(F)(F)F.O=C(O)C(F)(F)F [compound 227, N-(1-(2-Aminoethyl)piperidin-4-yl)-7-(aminomethyl)-3-(trifluoromethyl)-10H-phenothiazin-1-amine bis(2,2,2-trifluoroacetate)]",–,7,43,5,–
"FC(F)(F)c1cc2c3c(c1)nc(C1CCNCC1)n3-c1ccccc1S2 [compound 232, 1-(piperidin-4-yl)-4-(trifluoromethyl) imidazo[4,5,1-kl]phenothiazine]",–,29,24,6,–
"NCCN(CCN)CCN1CCC(Nc2cc(C(F)(F)F)cc3c2Nc2ccccc2S3)CC1 [compound 234, N1-(2-aminoethyl)-N1-(2-(4-((3-(trifluoromethyl)-10H-phenothiazin-1-yl)amino)piperidin-1-yl)ethyl)ethane-1,2-diamine]",8,–,8,4,–
"NCCN1CCC(c2nc3cc(C(F)(F)F)cc4c3n2-c2ccccc2S4)CC1 [compound 239, 2-(4-(4-(Trifluoromethyl)imidazo[4,5,1-kl]phenothiazin-1-yl)piperidin-1-yl)ethanamine]",–,17,13,7,–
"FC(F)(F)c1cc(NC2CCNCC2)cc2c1Nc1ccccc1S2 [compound 240, N-(piperidin-4-yl)-1-(trifluoromethyl)-10H-phenothiazin-3-amine]",–,62,> 100,23,–
"NC1CCCC(C(=O)Nc2cc(C(F)(F)F)cc3c2Nc2ccc(-c4cc5ccccc5[nH]4)cc2S3)C1 (centres unmarked) [compound 242, N-(7-(1H-Indol-2-yl)-3-(trifluoromethyl)-10H-phenothiazin-1-yl)-3-aminocyclohexanecarboxamide]",8,3,–,4,"MIC [5]: > 128 µg/mL; MIC [6]: 16 µg/mL; MIC [7]: 16 µg/mL; MIC ([1]; ATCC29213, Table 16, read-out: MIC S. aureus ATCC 29213): 2 µg/mL; MIC [8]: 2 µg/mL; MIC [9]: 128 µg/mL; MIC [10]: 2 µg/mL; MIC [11]: 64 µg/mL; MIC [12]: 16 µg/mL"
"NCCCN1c2ccc(-c3cc4ccccc4[nH]3)cc2Sc2cc(N3CCNCC3)ccc21.O=C(O)C(F)(F)F [compound 244, 3-(3-(1H-indol-2-yl)-7-(piperazin-1-yl)-10H-phenothiazin-10-yl)propan-1-amine]",4,4,36,9,–
"COC(=O)c1ccc2c(c1)Sc1cc(C(F)(F)F)cc(NC3CCN(CCN)CC3)c1N2 [compound 247, Methyl 9-((1-(2-aminoethyl)piperidin-4-yl)amino)-7-(trifluoromethyl)-10H-phenothiazine-3-carboxylate]",8,16,4,4,–
"NCCN1CCC(Nc2cc3c(c(C(F)(F)F)c2)Nc2ccccc2S3)CC1 [compound 252, N-(1-(2-aminoethyl)piperidin-4-yl)-1-(trifluoromethyl)-10H-phenothiazin-3-amine]",–,9,26,7,–
